In assay [1] the test system is GP2d cells (KRAS G12D). Put plainly: Cell-based pERK HTRF assay in GP2d cell (Biological Example 2). Particulars: GP2d, GP2d (KRAS G12D) cells, pERK HTRF. The gist of the method:
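Cells grown in DMEM with 10% FBS were exposed to compound for 60 min at 0.25% DMSO, using a 9-point half-log series starting at 1 μM or 100 nM. Lysates were then mixed with d2 and Eu cryptate antibodies for 4–24 h at room temperature, and pERK was read by HTRF.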
On the technique in general: In TR-FRET formats the signal depends on donor and acceptor labels being close together.

For assay [2], the system named is SW620 cells (KRAS G12V). Put plainly: Cell-based pERK HTRF assay in SW620 cell (Biological Example 4). The settings on record: Homo sapiens, SW-620, SW620 (KRAS G12V) cells, pERK HTRF. In short, it runs like this: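 In SW620 cells grown in RPMI with 10% FBS, a 4 h compound treatment (0.25% DMSO, 9-point curve from 1 μM) preceded lysis. Phospho-ERK levels were then read by time-resolved FRET at 615 nm emission.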

Assay [3] addresses T1, Avi-KRAS G12R (1-169) GppNHp/RAF1 RBD-3xFLAG (52-151) (Homo sapiens, UniProt P01116, G12R).
T1 construct: Avi-KRAS G12R (1-169)
Put plainly: Raf1-KRAS G12R-GppNHP disruption HTRF assay (Biological Example 1). The assay is classed as binding. The settings on record: KRAS G12R-GppNHp/RAF1 RBD HTRF. The gist of the method: (§1)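 Using HTRF, the loss of KRAS–effector RAF1 complex was quantified in 50 mM Tris pH 7.5 buffer with 100 mM NaCl and 0.1% BSA. The protein step and reagent step ran 1 h each at room temperature. Activity normalized with DMSO taken as 100%.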

In assay [4] the target is T2, Avi-KRAS G12V (1-169) GppNHp/RAF1 RBD-3xFLAG (52-151) (Homo sapiens, UniProt P01116, G12V).
T2 construct: Avi-KRAS G12V (1-169)
T2 sequence (P01116 1-169 isoform P01116-2 G12V): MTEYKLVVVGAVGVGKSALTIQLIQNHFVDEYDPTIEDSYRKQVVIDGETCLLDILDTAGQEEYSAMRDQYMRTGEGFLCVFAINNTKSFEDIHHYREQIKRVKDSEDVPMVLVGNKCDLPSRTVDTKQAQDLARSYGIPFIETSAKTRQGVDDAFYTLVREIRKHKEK
The assay can be described thus: Raf1-KRAS G12V-GppNHP disruption HTRF assay (Biological Example 1). Particulars: KRAS G12V-GppNHp/RAF1 RBD HTRF. The assay is classed as binding. The gist of the method: as §1

Assay [5] concerns the target T3, Avi-KRAS WT (1-169) GppNHp/RAF1 RBD-3xFLAG (52-151) (Homo sapiens, UniProt P01116).
T3 construct: Avi-KRAS WT (1-169)
Put plainly: Raf1-KRAS WT-GppNHP disruption HTRF assay (Biological Example 1). It is filed as binding. Particulars: KRAS WT-GppNHp/RAF1 RBD HTRF. The gist of the method: as §1

Assay [6] has as its target T4, Avi-KRAS G12D (1-169) GppNHp/RAF1 RBD-3xFLAG (52-151) (Homo sapiens, UniProt P01116, G12D).
T4 construct: Avi-KRAS G12D (1-169)
Put plainly: Raf1-KRAS G12D-GppNHP disruption HTRF assay (Biological Example 1). The assay is classed as binding. The settings on record: KRAS G12D-GppNHp/RAF1 RBD HTRF. The gist of the method:
as §1

Experimental findings from patent US20260042764A1, “COMPOSITIONS AND METHODS FOR INHIBITION OF KRAS” (TheRas, Inc., priority 2022, published 2026) are described below.

For orientation: IC50 means the midpoint of a concentration-inhibition curve. Low values mean inhibition by little substance, high ones a need for much substance.

Some results are limits rather than exact numbers.

T4 sequence (P01116 1-169 isoform P01116-2 G12D): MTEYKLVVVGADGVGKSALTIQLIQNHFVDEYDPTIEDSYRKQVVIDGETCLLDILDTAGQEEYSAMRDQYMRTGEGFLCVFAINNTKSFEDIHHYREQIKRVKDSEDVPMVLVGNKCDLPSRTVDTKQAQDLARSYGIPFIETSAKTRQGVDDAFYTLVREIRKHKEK
T3 sequence (P01116 1-169 isoform P01116-2): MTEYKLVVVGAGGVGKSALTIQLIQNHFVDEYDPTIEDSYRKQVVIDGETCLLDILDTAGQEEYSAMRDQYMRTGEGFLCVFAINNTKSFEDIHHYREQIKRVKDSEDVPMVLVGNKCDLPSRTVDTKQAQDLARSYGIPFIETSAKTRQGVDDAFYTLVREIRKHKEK
T1 sequence (P01116 1-169 isoform P01116-2 G12R): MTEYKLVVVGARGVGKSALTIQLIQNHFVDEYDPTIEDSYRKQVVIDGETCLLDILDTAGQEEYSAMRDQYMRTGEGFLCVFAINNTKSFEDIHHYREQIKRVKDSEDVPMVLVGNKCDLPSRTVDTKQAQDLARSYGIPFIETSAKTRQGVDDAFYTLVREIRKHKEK

As for `CN1C[C@H](N(C)c2nc(OC[C@@]34CCCN3C[C@H](F)C4)nc3c(F)c(-c4ccc(F)c5sc(N)c(C#N)c45)c(C(F)(F)F)cc23)CC1=O` [Compound 285], the half-maximal inhibitory concentration (IC50) is less than 100 nM in assay [1]; less than 100 nM in assay [2]; 100 to 1000 nM in assay [3]; 100 to 1000 nM in assay [4]; 100 to 1000 nM in assay [5]; 100 to 1000 nM in assay [6].
On to `CC(=O)N1CCC[C@H](N(C)c2nc(OC[C@@]34CCCN3C[C@H](F)C4)nc3c(F)c(-c4ccc(F)c5sc(N)c(C#N)c45)c(C(F)(F)F)cc23)C1` [Compound 289], for which the IC50 in assay [1] is less than 100 nM; in assay [2], less than 100 nM; in assay [3], 100 to 1000 nM; in assay [4] it was 100 to 1000 nM; in assay [5] it was 100 to 1000 nM; in assay [6] it was 100 to 1000 nM.
On to `N#Cc1c(N)sc2c(F)ccc(-c3c(C(F)(F)F)cc4c(N5CCCC[C@H](O)C5)nc(OC[C@@]56CCCN5C[C@H](F)C6)nc4c3F)c12` [Compound 290], for which the IC50 in assay [1] is less than 100 nM; in assay [2], less than 100 nM; in assay [3] it was 100 to 1000 nM; in assay [4], 100 to 1000 nM; in assay [5], 100 to 1000 nM; in assay [6], 100 to 1000 nM.
Turning to `N#Cc1c(N)sc2c(F)ccc(-c3c(C(F)(F)F)cc4c(N5CC6COC(C6)C5)nc(OC[C@@]56CCCN5C[C@H](F)C6)nc4c3F)c12` (stereo partly drawn) [Compound 292], the IC50 was less than 100 nM in assay [1]; less than 100 nM in assay [2]; 100 to 1000 nM in assay [3]; 1000 to 10000 nM in assay [4]; 100 to 1000 nM in assay [5]; 100 to 1000 nM in assay [6].
As for `N#Cc1c(N)sc2c(F)ccc(-c3c(C(F)(F)F)cc4c(N5CC6COC[C@H]6C5)nc(OC[C@@]56CCCN5C[C@H](F)C6)nc4c3F)c12` (stereo partly drawn) [Compound 293], the IC50 in assay [1] was less than 100 nM; in assay [2] it was less than 100 nM; in assay [3], 100 to 1000 nM; in assay [4] it was 1000 to 10000 nM; in assay [5], 100 to 1000 nM; in assay [6], 100 to 1000 nM.
In the case of `N#Cc1c(N)sc2c(F)ccc(-c3c(C(F)(F)F)cc4c(N5CCn6cnnc6C5)nc(OC[C@@]56CCCN5C[C@H](F)C6)nc4c3F)c12` [Compound 294], the IC50 in assay [1], in assay [2], in assay [3], in assay [4], in assay [5] and in assay [6] was 100 to 1000 nM each time.
With `CC(=O)N1CCC[C@@H](N(C)c2nc(OC[C@@]34CCCN3C[C@H](F)C4)nc3c(F)c(-c4ccc(F)c5sc(N)c(C#N)c45)c(C(F)(F)F)cc23)C1` [Compound 295], the IC50 in assay [1] is less than 100 nM; in assay [2], less than 100 nM; in assay [3], 100 to 1000 nM; in assay [4], 100 to 1000 nM; in assay [5] it was 100 to 1000 nM; in assay [6], 100 to 1000 nM.
Turning to `CC(=O)N1CCC(N(C)c2nc(OC[C@@]34CCCN3C[C@H](F)C4)nc3c(F)c(-c4ccc(F)c5sc(N)c(C#N)c45)c(C(F)(F)F)cc23)CC1` [Compound 296], the IC50 in assay [1] is less than 100 nM; in assay [2], 100 to 1000 nM; in assay [3], 100 to 1000 nM; in assay [4], 100 to 1000 nM; in assay [5], 100 to 1000 nM; in assay [6], 100 to 1000 nM.
Take `N#Cc1c(N)sc2c(F)ccc(-c3c(C(F)(F)F)cc4c(N5CCS(=N)(=O)CC5)nc(OC[C@@]56CCCN5C[C@H](F)C6)nc4c3F)c12` [Compound 297]: the concentration for half-maximal inhibition (IC50) in assay [1] was less than 100 nM; in assay [2] it was less than 100 nM; in assay [3] it was 100 to 1000 nM; in assay [4], 100 to 1000 nM; in assay [5] it was 100 to 1000 nM; in assay [6], 100 to 1000 nM.
For the molecule `CCC(=O)N1CC[C@@H](N(C)c2nc(OC[C@@]34CCCN3C[C@H](F)C4)nc3c(F)c(-c4ccc(F)c5sc(N)c(C#N)c45)c(C(F)(F)F)cc23)[C@@H]1C` [Compound 299], the IC50 in assay [1] was less than 100 nM; in assay [2], less than 100 nM; in assay [3] it was 1000 to 10000 nM; in assay [4], 1000 to 10000 nM; in assay [5], 100 to 1000 nM; in assay [6], 100 to 1000 nM.
On to `CC(C)C(=O)N1CC[C@@H](N(C)c2nc(OC[C@@]34CCCN3C[C@H](F)C4)nc3c(F)c(-c4ccc(F)c5sc(N)c(C#N)c45)c(C(F)(F)F)cc23)[C@@H]1C` [Compound 300], for which the 50% inhibitory concentration (IC50) in assay [1] is less than 100 nM; in assay [2] it was 100 to 1000 nM; in assay [3], 1000 to 10000 nM; in assay [4], 1000 to 10000 nM; in assay [5], 100 to 1000 nM; in assay [6] it was 100 to 1000 nM.
`C[C@H]1[C@H](N(C)c2nc(OC[C@@]34CCCN3C[C@H](F)C4)nc3c(F)c(-c4ccc(F)c5sc(N)c(C#N)c45)c(C(F)(F)F)cc23)CCN1C(=O)C1CC1` [Compound 301]: the IC50 was less than 100 nM in assay [1]; less than 100 nM in assay [2]; 1000 to 10000 nM in assay [3]; 1000 to 10000 nM in assay [4]; 100 to 1000 nM in assay [5]; 100 to 1000 nM in assay [6].
As for `C[C@H]1CS(=O)(=O)CCN1c1nc(OC[C@@]23CCCN2C[C@H](F)C3)nc2c(F)c(-c3ccc(F)c4sc(N)c(C#N)c34)c(C(F)(F)F)cc12` [Compound 302], the IC50 in assay [1] was less than 100 nM; in assay [2], less than 100 nM; in assay [3], 100 to 1000 nM; in assay [4] it was 1000 to 10000 nM; in assay [5], 100 to 1000 nM; in assay [6], 100 to 1000 nM.
As to `CC(=O)N1C[C@@H](C)[C@H](N(C)c2nc(OC[C@@]34CCCN3C[C@H](F)C4)nc3c(F)c(-c4ccc(F)c5sc(N)c(C#N)c45)c(C(F)(F)F)cc23)C1` [Compound 303], the IC50 in assay [1] was less than 100 nM; in assay [2] it was 100 to 1000 nM; in assay [3], 100 to 1000 nM; in assay [4] it was 100 to 1000 nM; in assay [5] it was 100 to 1000 nM; in assay [6], 100 to 1000 nM.
`CC(=O)N1CCC2[C@H]1CCCN2c1nc(OC[C@@]23CCCN2C[C@H](F)C3)nc2c(F)c(-c3ccc(F)c4sc(N)c(C#N)c34)c(C(F)(F)F)cc12` (stereo partly drawn) [Compound 304]: the IC50 in assay [1] was less than 100 nM; in assay [2], 100 to 1000 nM; in assay [3], 1000 to 10000 nM; in assay [4], 1000 to 10000 nM; in assay [5] it was 100 to 1000 nM; in assay [6], 1000 to 10000 nM.
For `N#Cc1c(N)sc2c(F)ccc(-c3c(C(F)(F)F)cc4c(N5CCCCCC5)nc(OC[C@@]56CCCN5C[C@H](F)C6)nc4c3F)c12` [Compound 305], the IC50 was less than 100 nM in assay [1]; less than 100 nM in assay [2]; 100 to 1000 nM in assay [3]; 100 to 1000 nM in assay [4]; 100 to 1000 nM in assay [5]; 100 to 1000 nM in assay [6].
As for `N#Cc1c(N)sc2c(F)ccc(-c3c(C(F)(F)F)cc4c(N5CC6CC(O)C(C6)C5)nc(OC[C@@]56CCCN5C[C@H](F)C6)nc4c3F)c12` (stereo partly drawn) [Compound 306], the IC50 was 100 to 1000 nM in assay [1]; 100 to 1000 nM in assay [2]; 1000 to 10000 nM in assay [3]; more than 10000 nM in assay [4]; 1000 to 10000 nM in assay [5]; 1000 to 10000 nM in assay [6].
On to `CC(=O)N1CCC2[C@H]1CCN2c1nc(OC[C@@]23CCCN2C[C@H](F)C3)nc2c(F)c(-c3ccc(F)c4sc(N)c(C#N)c34)c(C(F)(F)F)cc12` (stereo partly drawn) [Compound 307], for which the IC50 in assay [1] is less than 100 nM; in assay [2], less than 100 nM; in assay [3], 1000 to 10000 nM; in assay [4] it was 1000 to 10000 nM; in assay [5] it was 1000 to 10000 nM; in assay [6], 1000 to 10000 nM.
Turning to `N#Cc1c(N)sc2c(F)ccc(-c3c(C(F)(F)F)cc4c(N5CC6C(=O)NC(=O)C6C5)nc(OC[C@@]56CCCN5C[C@H](F)C6)nc4c3F)c12` (stereo partly drawn) [Compound 308], the half-maximal inhibitory concentration (IC50) in assay [1] is 100 to 1000 nM; in assay [2], more than 1000 nM; in assay [3] it was 1000 to 10000 nM; in assay [4], 1000 to 10000 nM; in assay [5] it was 100 to 1000 nM; in assay [6], 100 to 1000 nM.
As for `CN(c1nc(OC[C@@]23CCCN2C[C@H](F)C3)nc2c(F)c(-c3ccc(F)c4sc(N)c(C#N)c34)c(C(F)(F)F)cc12)[C@H]1CC[C@@H](O)C1` [Compound 309], the half-inhibitory concentration (IC50) in assay [1] is less than 100 nM; in assay [2] it was less than 100 nM; in assay [3], 100 to 1000 nM; in assay [4] it was 100 to 1000 nM; in assay [5] it was 100 to 1000 nM; in assay [6] it was 100 to 1000 nM.
